Test results taken from patent US7465817B2, “Inositolized phospholipids” (Charite-Universitats Medizin Berlin, priority 2002, dated 2008).
Entries after “also recorded” stand apart in the source; their conditions may differ. Where two headings read alike, the source gives them in different places.

Key:
SCC-25 cells = experiment: antiproliferative effect in squamous carcinoma cell line; assay type: cell-based; settings: SCC-25 tumor cells
Description: (§1) The impact of glycosidation in the glycosidated phospholipid analogs was determined in serum-free cell cultures of human keratinocytes (HaCaT cells) and a squamous carcinoma cell line (SCC-25).
In SCC-25 cells the antiproliferative effects of the glycosidated phospholipid analogs is much stronger.

[1] = cited from earlier work
HaCaT cells [2] = experiment: cell proliferation ELISA, based on the incorporation of BrdU (Roche); design: species or system human; settings: for IC50: serum-free, text says μmolar range; for antiproliferative effect (in words): non cytotoxic concentrations
Description: as §1
Ino-PAF as obtained in Example 1, Glc-PC and Glc-PAF (synthesis according to Mickeleit, M. et al., Angew. Chem. Int. Ed. Engl. 34:2667-2669 (1995) and 37:351-353 (1998)), and HePC (Hexadecylphosphocholine; commercially available as Miltefosin) were tested in the cell proliferation ELISA, BrdU (col.), Roche in an amount of from 0.6 to 5 μM. Prior to the assay the cells were kept for 2 h in serum-free keratinocyte medium. Assays were performed using 10.000 cells per test, at least quadruple testing.

HaCaT cells [3] = experiment: cell matrix adhesion to ECM proteins (collagen IV, fibronectin, laminin), crystal violet; assay type: cell-based, human; settings: for cell adhesion to extracellular matrix components fibronectin, laminin and collagen IV: treatment for 2 h; for cell matrix adhesion after incubation (summary of advantages): HePC with delayed onset of action
Description: In order to study the effect of Glc-PAF, Ino-PAF and Glc-PC (as specified in Example 2) on cell matrix adhesion HaCaT cells were rested 15 min at 4° C. and allowed to adhere to different ECM proteins (collagen IV, fibronectin and laminin) for 90 min at 37° C. The proteins of the extracellular matrix (ECM) were loaded onto the plastic surface by overnight treatment at 4° C. After fixing and staining in crystal violet, coloring was measured at 570 nm. Per test were used 50,000 cells, and quadruple testing was performed.

[4] = low but antiproliferative concentrations; cited from earlier work
HaCaT cells [5] = experiment: Viability determined by the LDH assay; assay type: cell-based; settings: human
HaCaT cells [6] = settings: literature, Schoen et al. 1996; cited from earlier work
β1-Integrin = experiment: β1 integrin surface expression and clustering, immunofluorescence; assay type: cell-based, human; settings: HaCaT cells
Description: HaCaT cells were treated with Ino-PAF (obtained as described in Example 1) for 48 h. For the immunofluorescence measurement, cells were treated with 5 μM Ino-PAF. The antibody utilized for detection was directed against the β1-Integrin, which is a surface receptor conferring cell-matrix-adhesion. Immunofluorescence analysis was performed on a collagen IV matrix. 5×10^4 cells/well were left to adhere for 90 min and stained with K20-FITC (anti-β1) or Phalloidin-TRITC respectively.

HaCaT cells [7] = experiment: cell proliferation ELISA, based on the incorporation of BrdU (Roche); settings: Homo sapiens, Fischer et al. unpublished data, read-out: antiproliferative effect IC50
protein kinase C (PKC) = settings: cited from earlier work

| Compound | antiproliferative effect (SCC-25 cells) | water solubility [1] | IC50 (HaCaT cells [2]; Homo sapiens) [µM] | antiproliferative effect (in words) (HaCaT cells [2]) | cell adhesion to extracellular matrix components fibronectin, laminin and collagen IV (HaCaT cells [3]) | apoptosis [4] | Viability (LD50) (HaCaT cells [5]) | IC50 (HaCaT cells [2]) [µM] | cell matrix adhesion after incubation (summary of advantages) (HaCaT cells [3]) | cell matrix adhesion (HaCaT cells [6]) | surface expression of integrins (β1-Integrin) | integrin clustering (β1-Integrin; 5 μM, 48 h) | IC50 (HaCaT cells [7]) [µM] | toxic effect LD50 (HaCaT cells [5]) [µM] | increase of PKC activity (protein kinase C (PKC); HaCaT cells, non-toxic concentrations) | inhibition of PKC activity in vitro (protein kinase C (PKC); high, toxic concentrations) |
| --- | --- | --- | --- | --- | --- | --- | --- | --- | --- | --- | --- | --- | --- | --- | --- | --- |
| CCCCCCCCCCCCCCCCCCOC[C@H](COP(=O)([O-])OCC[N+](C)(C)C)O[C@H]1O[C@H](CO)[C@@H](O)[C@H](O)[C@H]1O [Glc-PAF, 1-O-octadecyl-2-O-α-D-gluco-pyranosyl-sn-glycero-3-phosphocholine] | sub-μmolar range | water-soluble | 5 | inhibited cell proliferation | increases cell adhesion | cause apoptosis | 9 |  |  |  |  |  |  |  |  |  |
| CCCCCCCCCCCCCCCCOP(=O)([O-])OCC[N+](C)(C)C [HePC, hexadecyl-phosphocholine] |  |  |  |  |  |  |  | 4.5 | increased | reduce cell matrix adhesion |  |  |  |  |  |  |
| CCCCCCCCCCCCCCCCCCOC[C@H](COP(=O)([O-])OCC[N+](C)(C)C)OCCO[C@@H]1[C@@H](O)[C@H](O)[C@@H](O)[C@H](O)[C@@H]1O [Ino-PAF, inositol-C2-PAF] |  |  | 1.8 | strong antiproliferative effects; also recorded: stronger antiproliferative effects than the therapeutically used HePC | concentration-dependent increase; also recorded: increases cell adhesion |  | 15 |  | increased |  | not affected | induces integrin clustering | 1.7 | > 10 |  |  |
| glyceroglucophosphocholine [Glc-PC] |  | water-soluble |  | strong antiproliferative effects; also recorded: inhibited cell proliferation |  |  | 50 | 9 |  |  |  |  |  |  | up to 70% | do not inhibit PKC activity |
